Measured values as given in patent US20130065964A1, “PERITONEAL DIALYSIS SOLUTION” (UNIVERSIDAD DE CASTILLA LA MANCHA, priority 2010, published 2013).

Legend:
Assay type in all cases: cell-based
Collagen I = assay: Real-time RT-PCR in cultured PMCs exposed to PDF; details: rat PMCs, 1.5% PDF diluted 1:1 in culture medium, 24 hours, aliskiren 10-100 μM, FIG. 9
Description: (§1) After incubating the rat PMCs in 1.5% PDF diluted 1:1 in culture medium for 24 hours, in the presence or absence of carrier or different concentrations of aliskiren (10-100 μM), total RNA was isolated and real-time RT-PCR was carried out as described in Material and Methods. The data is expressed as mean±SEM, n=3. * p<0.05 compared to untreated cells (control). # p<0.05, compared to cells treated with 1.5% PDF in the presence of carrier (0).
(§2) Rat peritoneal mesothelial cells were isolated by enzymatic digestion in accordance with protocols described in Hjelle J T, Golinska B T, Waters D C, et al. Perit Dial Int 1989; 9: 341-7. […]
(§3) The RNA expression was evaluated by real-time RT-PCR in PMCs. […] RNA quality and concentration was evaluated by spectrophotometry (Infinite 200, Tecan, Salzburg, Austria) using 1 μl of the RNA sample. […] The dissociation curves were analysed to confirm the amplification of a single PCR product. […] In each experiment, the mean cycle threshold (CT) was calculated from triplicates for each of the genes studied, enabling comparison of the gene expression after different treatments (Methods 25, 402-408 (2001). In order to normalize the data, the gene expression of β-actin was used as endogenous control.

fibronectin = assay: Real-time RT-PCR in cultured PMCs exposed to PDF; details: rat PMCs, 1.5% PDF diluted 1:1 in culture medium, 24 hours, aliskiren 10-100 μM, FIG. 11
Description: as §1, §2, §3

caspase-3 = assay: Caspase-3 activity (Z-DEVD-AFC fluorescence); details: rat PMCs, D-glucose 50 mM, 24 hours, aliskiren 10-100 μM, FIG. 7
Description: The cells were incubated in D-glucose at 50 mM for 24 hours in the presence or absence of aliskiren (10-100 μM), and caspase-3 activity was measured as described in Material and Methods. The data is expressed as mean±SEM, n=3. * p<0.05 compared to the control (C). # p<0.05 compared to untreated cells (control). # p<0.05, compared to cells treated with D-glucose in the presence of carrier (0).
(§4) Rat peritoneal mesothelial cells were isolated by enzymatic digestion in accordance with protocols described in Hjelle J T, Golinska B T, Waters D C, et al. Perit Dial Int 1989; 9: 341-7. Briefly, female rats weighing 200-400 g of the Spragle-Dawley strain were sacrificed pursuant to Royal Decree 1201/2005, of 10 Oct., on protection of animals used for experimental and other scientific purposes. […]
In order to determine caspase-3 activity (Posadas I, Vellecco V, Santos P, et al. Br J Pharmacol 2007; 150: 577-85), the rat mesothelial cells were seeded on 6-well plates until reaching a confluence of 80%. […] After incubation, the samples were centrifuged at 13,000 rpm for 15 minutes at 4° C. and the protein concentration in the supernatants was determined using the Bradford method, following the standard protocol. […] Fluorescence emission was determined on a spectrofluorimeter (Tecan, Austria) at an excitation wavelength of 400 nm and an emission wavelength of 505 nm.

Collagen III = assay: Real-time RT-PCR in cultured PMCs exposed to PDF; details: rat PMCs, 1.5% PDF diluted 1:1 in culture medium, 24 hours, aliskiren 10-100 μM, FIG. 10
Description: as §1, with “absence” for “absence of carrier or different concentrations”
as §4, §3

For `COCCCOc1cc(C[C@@H](C[C@H](N)[C@@H](O)C[C@H](C(=O)NCC(C)(C)C(N)=O)C(C)C)C(C)C)ccc1OC` [aliskiren], the “RNAm levels for collagen I” value (Collagen I) was “lowered”, the “RNAm levels for fibronectin” value (fibronectin) was “lowered” and the activation of caspase (caspase-3) was “prevented”. The “RNAm levels for collagen III” value (Collagen III) was “lowered”.
